Patent publication US20020110838A1, “Methods for assessing muscle protein wasting and therapeutics therefor” (priority 2000, published 2002)
“Also recorded” adds a separate entry of the source. Where a SMILES comes first, the peptide text is derived from it. The star is where a group is joined. Cbz = O=C(OCc1ccccc1)*

How the values were obtained:
14 kDa actin fragment [1] = assay: Actin cleavage in L6 cell extracts incubated at 37° C. (immunoblot of 14 kDa actin fragment); assay type: biochemical, rat
Experimental: The cell extracts were incubated at 37° C. for various times before proteins were separated and subjected to Western blot analysis using commercially available, affinity-purified, polyclonal antibodies directed against the carboxy-terminus of actin.
To support this conclusion, we incubated lysates of L6 muscle cells at 37° C. with recombinant caspase 3 and then used Western blotting and detected the appearance of the actin fragment.
To test for involvement of the proteasome, we added MG132, an inhibitor of proteasome activity (ProScript, Inc. Cambridge, Mass.), and ATP to cell extracts before the 3 hr incubation at 37° C..
L6 muscles cells were washed and collected in ice cold PBS. Cells were swelled in hypotonic buffer (5 mM Tris pH 8.0, 1 mM 2-mercaptoethanol, 1% glycerol, 1 mM EDTA, 1 mM EGTA containing 0.1 mM phenylmethanesulfonyl fluoride (PMSF), leupeptin (5 μg/ml) and aprotinin (5 μg/ml) on ice for 30 minutes, and the cells were then gently homogenized with twenty strokes of a dounce homogenizer, with the materials being kept on ice. Homogenates were centrifuged at 3500 rpm (about 2000×g) for 10 minutes to remove nuclei and cell debris.
To assess for proteolytic cleavage of actin, extracts (20 μg of total protein) were incubated in 20 μl reaction volumes containing 25 mM Hepes (pH 7.5), 5 mM EDTA, 5 mM DTT for 3 h at 37° C. Reactions were terminated by adding Laemmli sample buffer, proteins were separated by SDS-PAGE, and immunoblot detection of actin fragments was carried out with an anti-actin antibody (Sigma).
The proteins were then transferred to ECL hybond membranes, and blots were incubated with anti-actin antibodies (1:500 dilution) in 5% milk in TTBS for 2 hours at 37° C. Bound primary antibodies were detected with goat anti-rabbit IgG antibody conjugated with HRRP and analyzed with ECL Detection Kit.

14 kDa actin fragment [2] = assay: 14 kDa actin peptide in intact L6 cells, measured after lysis; assay type: cell-based, rat; parameters: 14 kDa actin peptide in intact L6 cells activated with staurosporine and treated with proteasome inhibitor: dose or concentration left out as unconfirmed
Experimental: Actin cleavage was measured in lysates immediately after lysis.
This fragment (and others) are then rapidly degraded by the ubiquitin-proteasome system. […] The cells were then lysed and tested for the presence of the 14 kDa actin peptide.

L6 muscle cells [3] = assay: Apoptosis by Death ELISA / DNA fragmentation in L6 muscle cells; assay type: cell-based, rat; conditions: cultured L6 muscle cells, Death ELISA assay
caspase 3 = assay: Caspase 3 activation in L6 muscle cells (immunoblot); assay type: cell-based, rat; conditions: FIG. 4
Text: The caspase-specific proteins were separated by SDS-PAGE and visualized by immunoblotting with polyclonal antibodies prepared in response to the N-terminus of caspase 3.
Subsequently, proteins were separated and subjected to Western blot analysis using affinity-purified, polyclonal antibodies against the carboxy-terminus of actin (Sigma St. Louis, Mo.).

L6 muscle cells [4] = assay: Degradation of endogenous proteins in cell extracts (release of free tyrosine); assay type: cell-based, rat; conditions: 50 nM staurosporine 3 h; extracts 37° C. 3 h; exogenous ATP added
Experimental: L6 muscle cells were treated as marked, and lysates were incubated at 37° C. for 3 hours in the presence or absence of ATP (2 mM). Degradation of endogenous protein was monitored by measuring release of acid-soluble tyrosine from cell protein.
With this method, protein degradation in extracts of control cells was slightly less than that in extracts from staurosporine-treated cells. However, the 3 hour incubation at 37° C. could limit ATP and impair activity of the ubiquitin-proteasome system.
Protein degradation in cell extracts was assessed by measuring the net release of free tyrosine because muscles neither synthesizes nor degrades this amino acid (18,19). For 3 hours, 50 μg of cell extract proteins were incubated at 37° C. in 0.1 ml of reaction buffer (20 mM Tris (pH 7.6), 2 mM DTT, 10 mM MgCl2, 100 mM KCl, 5% glycerol) with or without 2 MM ATP.
Trichloroacetic acid (10% final concentration) was added and the amount of free tyrosine released from proteins was measured spectrofluorometrically. Alternatively, total cell protein can be labeled by growth in the presence of one or more radioactive amino acids, e.g., ^14C-labeled or ^3H-labeled, and solubilization of radioactive label can be measured with the use of liquid scintillation counting.

14 kDa actin fragment [5] = assay: Serum starvation-induced actin cleavage in L6 muscle cells; assay type: cell-based, rat; conditions: for serum starvation-induced actin cleavage: serum-starved L6 cells, 10 nM hormone added
Experimental: Physiological conditions trigger caspase 3-mediated actin cleavage . To examine whether a catabolic condition that is known to accelerate protein degradation in muscle cells also involves actin cleavage, L6 muscle cells were activated by 24 h of serum starvation (0.5% FBS) and cell lysates were prepared. […] Additional evidence for involvement of apoptosis-associated pathways was obtained by activating L6 cells using the serum starvation procedure and then adding insulin or IGF I because either hormone can prevent serum starvation induced apoptosis (24,25).

epitrochlearis muscles = assay: Protein degradation in incubated epitrochlearis muscles; parameters: species or system rat; conditions: epitrochlearis muscles in Krebs-Henseleit bicarbonate buffer with vs without inhibitor
Experimental: Rats were treated with streptozotocin and compared to pair-fed, rats injected with saline as described (4,26). Crude muscle lysates were isolated from acutely diabetic and control rats and examined for the presence of the 14 kDa actin fragment. A significant amount of this actin fragment was present in the muscle of diabetic rats compared to results from control rats. Finally, epitrochlearis muscles were incubated in Krebs-Henseleit bicarbonate buffer with or without the addition of the cell-permeable inhibitor of caspase 3, Ac-DEVD-Cho.

## Nc1ncnc2c1ncn2[C@@H]1O[C@H](COP(=O)(O)OP(=O)(O)OP(=O)(O)O)[C@@H](O)[C@H]1O [ATP]
14 kDa actin fragment [1]; 2 mM ATP added to extracts from staurosporine-treated cells, 3 hr, 37° C.
  amount of the 14 kDa peptide vs same extract without added ATP: significantly reduced

## CC(C)C[C@@H](C=O)NC(=O)[C@H](CC(C)C)NC(=O)[C@H](CC(C)C)NC(=O)OCc1ccccc1 [MG132] (Cbz-Leu-Leu-Leu-aldehyde)
14 kDa actin fragment [1]; MG132 and ATP added to cell extracts before 3 hr incubation at 37° C.
  amount of the 14 kDa actin peptide with proteasome inhibitor in presence of ATP: greater amounts
14 kDa actin fragment [2]; 24 hr staurosporine plus MG 132
  14 kDa actin peptide in intact L6 cells activated with staurosporine and treated with proteasome inhibitor: readily detected
14 kDa actin fragment [2]; L6 cells incubated 24 hr with single agent, then lysed
  14 kDa actin fragment in intact L6 cells, agent alone: only a small amount

## CN[C@@H]1C[C@H]2O[C@@](C)([C@@H]1OC)n1c3ccccc3c3c4c(c5c6ccccc6n2c5c31)C(=O)NC4 [staurosporine]
L6 muscle cells [3]
  activation of apoptosis: activates apoptosis
Caspase 3
  induction of caspase 3 activity: induces caspase 3 activity
L6 muscle cells [4]
  tyrosine release by extracts from staurosporine-treated cells vs control cell extracts: overall protein degradation is increased; also recorded: significantly higher

## Ac-DEVD-Cho
14 kDa actin fragment [5]; 24 h serum starvation (0.5% FBS), inhibitor added to cell lysate during incubation
  accumulation of the 14 kDa actin fragment after serum starvation: blocked the accumulation
14 kDa actin fragment [1]; extracts of L6 cells treated with 10 nM staurosporine or serum starvation, 5 μM inhibitor for 3 hr
  appearance of the 14 kDa actin fragment with caspase 3 inhibitor: blocked the appearance of the actin fragment
Epitrochlearis muscles
  reduction of the rate of muscle protein degradation: 30%

## Arg-Ala
14 kDa actin fragment [1]; extracts of staurosporine-exposed L6 cells, 37° C., dipeptide (2 mM) and ATP
  amount of the 14 kDa actin fragment vs incubation with ATP alone: greater amount

## IGF I
14 kDa actin fragment [5]
  serum starvation-induced actin cleavage: effectively blocked

## insulin
14 kDa actin fragment [5]
  serum starvation-induced actin cleavage: effectively blocked
